Laboratory results taken from patent US11478460B2, “Diaryl substituted 6,5-fused ring compounds as C5aR inhibitors” (CHEMOCENTRYX, INC., priority 2017, dated 2022).

target: C5aR (Homo sapiens (Human), UniProt P21730); assay: Chemotaxis assay using U937 cells (C5aR mediated migration); type: cell-based; conditions: read-out: Mig IC50
Procedure, shortened: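 U937 monocytic cells, pretreated overnight with 0.5 mM cyclic AMP, placed at 100,000 cells in the upper well above 5 μm polycarbonate filters. Lower well held 0.03 nM C5a plus compound in HBSS/1% FBS; after 1.5 h at 37° C migrated cells counted directly or by CyQuant, giving IC50.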

C5aR, sequence (P21730 whole entry): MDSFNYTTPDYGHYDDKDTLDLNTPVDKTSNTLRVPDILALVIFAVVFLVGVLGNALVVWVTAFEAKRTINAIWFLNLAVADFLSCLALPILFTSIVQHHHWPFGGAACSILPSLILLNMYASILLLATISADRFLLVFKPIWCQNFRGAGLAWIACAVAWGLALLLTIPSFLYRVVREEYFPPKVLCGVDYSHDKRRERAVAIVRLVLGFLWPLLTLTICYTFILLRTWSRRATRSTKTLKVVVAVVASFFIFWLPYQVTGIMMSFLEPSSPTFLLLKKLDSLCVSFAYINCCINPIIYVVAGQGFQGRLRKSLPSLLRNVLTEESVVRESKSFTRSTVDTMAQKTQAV

Structure (SMILES) | IC50 [nM]
Cc1cccc(OCC(C)C)c1-n1nc2c(c1-c1ccc(NC(N)=O)cc1)CN(C1CCCC1C)CC2 (stereo not shown) [Example 1.397] | 50 to 500
CCc1cccc(C)c1-n1nc2c(c1-c1ccc(NC(N)=O)cc1)CN(C(=O)OC(C)(C)C)CC2 [Example 1.399] | 50 to 500
Cc1ccc(C(C)(C)C)cc1N1CCc2nn(-c3c(C)cccc3CC(C)C)c(-c3ccc(N(C)C(N)=O)cc3)c2C1 [Example 1.400] | > 500
Cc1ccc(C(C)(C)C)cc1N1CCc2nn(-c3c(C)cccc3CC(C)C)c(-c3ccc(NC(N)=O)cc3)c2C1 [Example 1.401] | ≤ 5
Cc1ccc(C(C)(C)C)cc1N1CCc2nn(-c3ccccc3C(C)C)c(-c3ccc(N(C)C(N)=O)cc3)c2C1 [Example 1.402] | > 500
Cc1ccc(C(C)(C)C)cc1N1CCc2nn(-c3ccccc3C(C)C)c(-c3ccc(NC(N)=O)cc3)c2C1 [Example 1.403] | 50 to 500
Cc1cccc(OCC(C)C)c1-n1nc2c(c1-c1ccc(NC(N)=O)cc1)CN(CC1CCCC1)CC2 [Example 1.404] | 5 to 50
Cc1cccc(OCC(C)C)c1-n1nc2c(c1-c1ccc(NC(N)=O)cc1)CN(CC(C)(C)C)CC2 [Example 1.405] | 5 to 50
Cc1cccc(OCC(C)C)c1-n1nc2c(c1-c1ccc(NC(N)=O)cc1)CN(C1CCCCC1)CC2 [Example 1.406] | 50 to 500
Cc1cccc(OCC(C)C)c1-n1nc2c(c1-c1ccc(NC(N)=O)cc1)CN(c1ccc(C(F)(F)F)cc1)CC2 [Example 1.407] | 5 to 50
COc1cccc(C)c1-n1nc2c(c1-c1ccc(NC(N)=O)cc1)CN(c1ncccc1C)CC2 [Example 1.408] | 50 to 500
COc1cccc(C)c1-n1nc2c(c1-c1ccc(NC(N)=O)c(C)c1)CN(c1cc(C(C)(C)C)ccc1C)CC2 [Example 1.409] | 5 to 50
Cc1cccc(OCC(C)C)c1-n1nc2c(c1-c1ccc(NC(N)=O)cc1)CN(C1CCCC1)CC2 [Example 1.410] | 50 to 500
Cc1cccc(OCC(C)C)c1-n1nc2c(c1-c1ccc(C(N)=O)cc1)CN(C(=O)OC(C)(C)C)CC2 [Example 1.411] | > 500
Cc1cccc(OCC(C)C)c1-n1nc2c(c1-c1ccc(NC(N)=O)cc1)CN(c1cccc(C(F)(F)F)c1)CC2 [Example 1.412] | ≤ 5
Cc1cccc(OCC(C)C)c1-n1nc2c(c1-c1ccc(NC(N)=O)cc1)CN(c1ccc(C(F)(F)F)c(Cl)c1)CC2 [Example 1.413] | 5 to 50
Cc1cccc(CCC(C)C)c1-n1nc2c(c1-c1ccc(NC(N)=O)cc1)CN(C(=O)OC(C)(C)C)CC2 [Example 1.414] | 50 to 500
Cc1cccc(CC(C)C)c1-n1nc2c(c1-c1ccc(NC(N)=O)cc1)CN(C(=O)OC(C)(C)C)CC2 [Example 1.415] | 50 to 500
CC(C)c1ccccc1-n1nc2c(c1-c1ccc(NC(N)=O)cc1)CN(C(=O)OC(C)(C)C)CC2 [Example 1.416] | > 500
Cc1cccc(C)c1-n1nc2c(c1-c1ccc(NC(N)=O)cc1)CN(C(=O)OC(C)(C)C)CC2 [Example 1.417] | 50 to 500
Cc1ccc(C(F)(F)F)cc1N1CCc2nn(-c3c(C)cccc3OCC(C)C)c(-c3ccc(NC(N)=O)cc3)c2C1 [Example 1.418] | 5 to 50
Cc1cccc(OCC(C)C)c1-n1nc2c(c1-c1ccc(NC(N)=O)cc1)CN(c1ccc(F)cc1C(C)C)CC2 [Example 1.419] | 5 to 50
Cc1cccc(C)c1-n1nc2c(c1-c1ccc(C(N)=O)cc1)CN(C(=O)OC(C)(C)C)CC2 [Example 1.420] | > 500

Structure (SMILES) | IC50 [nM]
Cc1cccc(OCC(C)C)c1-n1nc2c(c1-c1ccc(NC(N)=O)cc1)CN(c1cc(C(C)(C)C)ccc1F)CC2 [Example 1.421] | ≤ 5
Cc1cccc(OCC(C)C)c1-n1nc2c(c1-c1ccc(NC(N)=O)cc1)CN(c1cc(C(C)(C)C)ccc1Cl)CC2 [Example 1.422] | 5 to 50
Cc1ccc(F)cc1N1CCc2nn(-c3c(C)cccc3OCC(C)C)c(-c3ccc(NC(N)=O)cc3)c2C1 [Example 1.423] | 5 to 50
Cc1cccc(OCC(C)C)c1-n1nc2c(c1-c1ccc(NC(N)=O)cc1)CN(C(=O)COC(C)(C)C)CC2 [Example 1.424] | > 500
Cc1cccc(OCC(C)C)c1-n1nc2c(c1-c1ccc(NC(N)=O)cc1)CN(C(=O)C1CCCCC1)CC2 [Example 1.425] | > 500
Cc1cccc(OCC(C)C)c1-n1nc2c(c1-c1ccc(NC(N)=O)cc1)CN(C(=O)C1CCC1)CC2 [Example 1.426] | 50 to 500
Cc1cc(F)c(C(C)C)cc1N1CCc2nn(-c3c(C)cccc3OCC(C)C)c(-c3ccc(NC(N)=O)cc3)c2C1 [Example 1.427] | ≤ 5
Cc1cccc(C(C)C)c1-n1nc2c(c1-c1ccc(NC(N)=O)cc1)CN(C(=O)OC(C)(C)C)CC2 [Example 1.428] | 50 to 500
Cc1cccc(OCC(C)C)c1-n1nc2c(c1-c1ccc(NC(N)=O)cc1)CN(C(=O)CCc1ccccc1)CC2 [Example 1.429] | 50 to 500
Cc1cccc(OCC(C)C)c1-n1nc2c(c1-c1ccc(NC(N)=O)cc1)CN(C(=O)Cc1ccccc1)CC2 [Example 1.430] | > 500
Cc1cccc(OCC(C)C)c1-n1nc2c(c1-c1ccc(NC(N)=O)cc1)CN(C(=O)c1ccccc1)CC2 [Example 1.431] | 50 to 500
Cc1cccc(OCC(C)C)c1-n1nc2c(c1-c1ccc(NC(N)=O)cc1)CN(C(=O)c1ccc(C(C)(C)C)cc1)CC2 [Example 1.432] | 50 to 500
Cc1cccc(OCC(C)C)c1-n1nc2c(c1-c1ccc(NC(N)=O)cc1)CN(C(=O)c1cccc(C(C)(C)C)c1)CC2 [Example 1.433] | 50 to 500
Cc1cccc(OCC(C)C)c1-n1nc2c(c1-c1ccc(NC(N)=O)cc1)CN(C(=O)c1ccccc1C(C)C)CC2 [Example 1.434] | 50 to 500
Cc1cccc(OCC(C)C)c1-n1nc2c(c1-c1ccc(NC(N)=O)cc1)CN(C(=O)CC(C)(C)C)CC2 [Example 1.435] | 50 to 500
Cc1cccc(OCC(C)C)c1-n1nc2c(c1-c1ccc(NC(N)=O)cc1)CN(C(=O)C(C)(C)C)CC2 [Example 1.436] | 50 to 500
Cc1cccc(OCC(C)C)c1-n1nc2c(c1-c1ccc(NC(N)=O)cc1)CN(C(=O)NC(C)(C)C)CC2 [Example 1.437] | > 500
Cc1cccc(OCC(C)C)c1-n1nc2c(c1-c1ccc(NC(N)=O)cc1)CN(C(=O)C1CCCC1)CC2 [Example 1.438] | 50 to 500
Cc1cccc(OCC(C)C)c1-n1nc2c(c1-c1ccc(NC(N)=O)cc1)CN(C(=O)OC(C)(C)C)CC2 [Example 1.439] | 5 to 50
Cc1ccc(N2CCc3nn(-c4c(C)cccc4OCC(C)C)c(-c4ccc(NC(N)=O)cc4)c3C2)cc1C(F)(F)F [Example 1.440] | 5 to 50
Cc1cc(NC(N)=O)ccc1-c1c2c(nn1-c1c(C)cccc1OCC(C)C)CCN(c1cc(C(C)(C)C)ccc1C)C2 [Example 1.441] | ≤ 5
Cc1ccc(C(C)(C)C)cc1N1CCc2nn(-c3c(C)cccc3C)c(-c3ccc(NC(N)=O)cc3)c2C1 [Example 1.442] | 5 to 50
Cc1cc(C(N)=O)ccc1-c1c2c(nn1-c1c(C)cccc1OCC(C)C)CCN(c1cc(C(C)(C)C)ccc1C)C2 [Example 1.443] | 50 to 500

Structure (SMILES) | IC50 [nM]
Cc1ccc(C(C)(C)C)cc1N1CCc2nn(-c3c(C)cccc3OC(C)C)c(-c3ccc(NC(N)=O)cc3)c2C1 [Example 1.444] | ≤ 5
Cc1ccc(C(C)(C)C)cc1N1CCc2nn(-c3c(C)cccc3OCC(C)C)c(-c3ccc(C(N)=O)cc3)c2C1 [Example 1.445] | 5 to 50
Cc1ccc(C(C)(C)C)cc1N1CCc2nn(-c3c(C)cccc3C)c(-c3ccc(OC(C)C)cc3)c2C1 [Example 1.446] | > 500
COc1cccc(C)c1-n1nc2c(c1-c1ccc(NC(N)=O)nc1)CN(c1ccccc1C(C)C)CC2 [Example 1.447] | 50 to 500
Cc1cccc(OCC(C)C)c1-n1nc2c(c1-c1ccc(C(C)(C)O)cc1)CN(c1ccccc1C(C)(C)C)CC2 [Example 1.449] | > 500
Cc1cccc(OCC(C)C)c1-n1nc2c(c1-c1ccc(CO)cc1)CN(c1ccccc1C(C)(C)C)CC2 [Example 1.450] | 50 to 500
COc1cccc(F)c1-n1nc2c(c1-c1ccc(NC(N)=O)cc1)CN(c1cc(C(C)(C)C)ccc1C)CC2 [Example 1.451] | 50 to 500
Cc1ccc(C(C)(C)C)cc1N1CCc2nn(-c3c(C)cccc3C)c(-c3ccc(O)cc3)c2C1 [Example 1.452] | 5 to 50
Cc1cccc(OCC(C)C)c1-n1nc2c(c1-c1ccc(C(N)=O)cc1)CN(c1ccccc1C(C)(C)C)CC2 [Example 1.453] | 5 to 50
Cc1cccc(OCC(C)C)c1-n1nc2c(c1-c1ccc(NC(N)=O)cc1)CN(c1ccccc1C(C)(C)C)CC2 [Example 1.454] | ≤ 5
Cc1cccc(OCC(C)C)c1-n1nc2c(c1-c1ccc(N)cc1)CN(c1ccccc1C(C)(C)C)CC2 [Example 1.455] | 5 to 50
COc1cccc(C)c1-n1nc2c(c1-c1ccc(NC(N)=O)cc1)CN(c1ccccc1C(C)(C)C)CC2 [Example 1.456] | 5 to 50
Cc1ccc(C(C)(C)C)cc1N1CCc2nn(-c3c(C)cccc3OCC(C)C)c(-c3ccc(NC(N)=O)cc3)c2C1 [Example 1.457] | ≤ 5
Cc1ccc(C(C)(C)C)cc1N1CCc2nn(-c3c(C)cccc3OCC(C)C)c(-c3ccc(N)cc3)c2C1 [Example 1.458] | 5 to 50
COc1cccc(C)c1-n1nc2c(c1-c1ccc(N)cc1)CN(c1ccccc1C(C)(C)C)CC2 [Example 1.459] | 5 to 50
Cc1cccc(OC(C)C)c1-n1nc2c(c1-c1ccc(NC(N)=O)cc1)CN(c1ccccc1C(C)C)CC2 [Example 1.460] | ≤ 5
Cc1cccc(F)c1-n1nc2c(c1-c1ccc(NC(N)=O)cc1)CN(c1ccccc1C(C)C)CC2 [Example 1.461] | 50 to 500
COc1cccc(C)c1-n1nc2c(c1-c1ccc(NC(N)=O)cc1)CN(c1cc(C(C)(C)C)ccc1C)CC2 [Example 1.462] | 5 to 50
Cc1cc(NC(N)=O)ccc1-c1c2c(nn1-c1c(C)cccc1C)CCN(c1ccccc1C(C)C)C2 [Example 1.463] | ≤ 5
Cc1cccc(F)c1-n1nc2c(c1-c1ccc(N)cc1)CN(c1ccccc1C(C)C)CC2 [Example 1.464] | 50 to 500
Cc1cccc(OC(C)C)c1-n1nc2c(c1-c1ccc(N)cc1)CN(c1ccccc1C(C)C)CC2 [Example 1.465] | 5 to 50
